Results: patent publication US4970206A, “Pyroglutamic acid esters used as dermal penetration enhancers for drugs” (Merck & Co., Inc., priority 1989, dated 1990)
Read-outs that look alike come from different tables or passages of the source.

Key:
[1] = Permeation enhancement of enalapril, clonidine and acyclovir using pyroglutamic esters; format: in vitro ADME, Elaphae obsolete (black rat snake); settings: for % delivered in 48 hrs ± SD: no enhancer; for Flux of acyclovir ± SD / % of acyclovir delivered in 48 hrs ± SD: acyclovir with enhancer; for Flux of clonidine ± SD / % of clonidine delivered in 48 hrs ± SD: clonidine with enhancer; for Flux of enalapril ± SD / % of enalapril delivered in 48 hrs ± SD: enalapril with enhancer
Protocol: (§1) In the examples given below, the permeation enhancement was determined using an in vitro diffusion cell procedure. The molts of adult Elaphae obsolete (black rat snake) was used as the model for stratum corneum membrane (R. Ibuki, Ph.D. Thesis, University of Kansas, 1985). The shed snake skin has great similarities to human skin in terms of thickness, composition of constituents and structure and has been proposed as the most suitable model for human stratum corneum for permeability studies.
Glass diffusion cells consisting of a donor and receptor cells separated by the shed snake skin membrane were assembled using circular O-ring joints held together by spring clamps. The exposed membrane surface area of the diffusion cell measured 1.8 cm^2. Before being mounted in the diffusion cell approximately 25 mg of an ointment containing the therapeutic agent and the penetration enhancer was carefully applied to the membrane and was spread over the desired area. The receptor side was filled with approximately 8.5 ml of buffer solution consisting of 1.5×10^-1 M NaCl, 5×10^-4 NaH2 PO4 and 2.0×10^-4 M Na2 HPO4 adjusted to pH 7.2 with NaOH. The diffusion cell was immersed vertically in a water bath maintained at 32°±1° C. The receptor cell was stirred constantly with a magnetic stirrer. To determine the amount of compound penetrated through the snake skin membrane from the upper chamber, 0.2 ml samples were withdrawn at varying intervals from the receptor chamber using a syringe. An equal amount of fresh buffer was replenished during sampling. The concentration of drug penetrated in each diffusion cell was measured using high pressure liquid chromatography. […]

[2] = format: in vitro ADME, Elaphae obsolata (black rat snake); settings: n = 5; for Flux of 2,3-dihydro-5-hydroxy-6-(o-hydroxymethylcinnamyl)benzofuran ± SD / % of 2,3-dihydro-5-hydroxy-6-(o-hydroxymethylcinnamyl)benzofuran delivered in 48 hrs ± SD: 1% (w/w) drug with 15% (w/w) enhancer; for Flux of 2,3-dihydro-5-hydroxy-6-(o-hydroxymethylcinnamyl)benzofuran ± SD: 32°
Protocol: The transport of 2,3-dihydro-5-hydroxy-6-(o-hydroxymethylcinnamyl)benzofuran, through shed snake skin, which has been reported to be a good model for human stratum corneaum in terms of thickness, compositional features, structure and permeability, was measured in the presence of decyl, dodecyl and oleyl esters of L-pyroglutamic acid used as penetration enhancers.
Because of the poor aqueous solubility of 2,3-dihydro 5-hydroxy-6-(o-hydroxymethylcinnamyl)benzofuran (<0.0002 mg/ml at 32°), 20% propyleneglycol in isotonic pH 7.2 phosphate buffer was used as the receptor medium. […] A weighed amount of a petrolatum ointment (30-35 mg) containing 1% (w/w) of 2,3-dihydro-5-hydroxy-6-(o-hydroxymethylcinnamyl)benzofuran with or without 15% (w/w) of the permeation enhancer was applied to 1.76 cm^2 area of shed skin of adult Elaphae obsolata (black rat snake), and held between the donor and receptor compartments of a diffusion cell by O-rings. […] The diffusion cells were maintained at 32°±1° C. The amount of drug diffused into the receptor chamber was measured by HPLC using acetonitrile-water (2:3) at a flow rate of 1 ml/min as mobile phase, a C18 column and a UV detector set at […]. The results (Table IV below) are averages of five diffusion cells for each experiment.

[3] = Aqueous solubility; format: physicochemical; settings: water, at 32°
[4] = In vitro diffusion cell permeation through shed snake skin (Example 4); format: in vitro ADME, Elaphae obsolete (black rat snake); settings: 32°; for flux of indomethacin: pH 7.2
Protocol: as §1
Glass diffusion cells consisting of a donor and receptor cells separated by the shed snake skin membrane were assembled using circular O-ring joints held together by spring clamps. The exposed membrane surface area of the diffusion cell measured 1.8 cm^2. Before being mounted in the diffusion cell approximately 25 mg of an ointment containing the therapeutic agent and the penetration enhancer was carefully applied to the membrane and was spread over the desired area. The receptor side was filled with approximately 8.5 ml of buffer solution consisting of 1.5×10^-1 M NaCl, 5×10^-4 NaH2 PO4 and 2.0×10^-4 M Na2 HPO4 adjusted to pH 7.2 with NaOH. The diffusion cell was immersed vertically in a water bath maintained at 32°±1° C. The receptor cell was stirred constantly with a magnetic stirrer. To determine the amount of compound penetrated through the snake skin membrane from the upper chamber, 0.2 ml samples were withdrawn at varying intervals from the receptor chamber using a syringe. An equal amount of fresh buffer was replenished during sampling. The concentration of drug penetrated in each diffusion cell was measured using high pressure liquid chromatography. The results reported for each experiment are the average values from 5 replicate diffusion cells.
The ointments used for the experiments contained varying concentrations of the drug and penetration enhancing agent. The drug was dispersed in the enhancer and this was then mixed with white petrolatum USP using a vortex mixer around 55° C. The ointments were kept in a water bath at 32°±1° C. for 1 day before use in in vitro studies. See Tables II and III below for the results of penetration enhancement effects.

[5] = test system: skin (dorsal surface) of fuzzy rats; experiment: Skin Irritation Study (modified Draize, 3-day occlusive dermal application); format: in vivo; design: key: modified Draize index, 0-8 (erythema 0-4 + edema 0-4); settings: 3 DAY occlusion, 50 mg over 2 cm^2, maximum 8; for Primary Irritation Index (PII), T0-T72 hrs: irritation index ± SD (n)
Protocol: Fuzzy rats (Temple University) 150 to 200 g were used to study the dermal irritancy as the neat compounds. Test preparations (50 mg) were applied to circular gauze pads 1 mm thick and 16 mm in diameter, and affixed to the animals' dorsal surface with occlusive adhesive film (Adhesive Plaster for Patch Test, Kanebo, Ltd., Osaka, Japan). The occlusive dressings were removed after 3 or 7 days. Treated skin areas were then evaluated according to a modified Draize scoring method, and the irritation index was evaluated for each test site. The first or "primary irritation index" (PII) was an average value reflecting irritation both immediately after dressing removal, and 72 hours later. The "secondary irritation index" (SII) was determined 7 days after dressing removal. The maximum possible PII or SII was 8 with a total possible score of 4 erythema, and a total possible score of 4 for edema. A PII or SII less than or equal to 2 indicated a mild irritant, a PII or SII greater than 2 but less than or equal to 6 indicated a moderate irritant, and a PII greater than 6 indicated a severe irritant as shown in Table 1 below: […]

[6] = Rat plasma hydrolysis; format: in vitro ADME; settings: 37° C., decanol generated, by GC, read-out: t 1/2 of enzymatic hydrolysis in rat plasma
Protocol: Freshly prepared rat plasma (2 ml) was mixed with decyl pyroglutamate (0.6 mg) and was maintained at 37° C. Aliquots were removed at different time intervals and vortexed with heptane (1 ml) containing dodecanol as an internal standard. The decanol produced by enzymatic hydrolysis was assayed by gas chromatography on a 6'×2 mm (id) column packed with OV-101 (methylsilicone) on gas chrom Q (100-120 mesh), programmed from 125° to 175° C.

[7] = weight ratio of enhancer/indomethacin 15.0
[8] = dodecyl pyroglutamate as enhancer, weight ratio of enhancer/drug 15
[9] = dodecyl pyroglutamate, weight ratio of enhancer/drug 0 (no enhancer)

**Q.** With `Clc1cccc(Cl)c1N=C1NCCN1` [Clonidine, reference compound] as the molecule, how does the “% delivered in 48 hrs ± SD” value ([1]; clonidine, n = 12) read?
**A.** 1.1 ± 0.3%

**Q.** Which results are given for `OCc1ccccc1C=CCc1cc2c(cc1O)CCO2` [2,3-dihydro-5-hydroxy-6-(o-hydroxymethylcinnamyl)benzofuran, reference compound]?
**A.** Flux ± SD ([2]; 1% (w/w) drug, no enhancer): 0.19 μg/cm^2 /hr; % delivered in 48 hrs ± SD ([2]; 1% (w/w) drug, no enhancer, 48 hrs): 4.24 ± 0.53%; solubility [3]: < 0.2 µg/mL

**Q.** Which results are given for `CCCCCCCCCCCCOC(=O)[C@@H]1CCC(=O)N1` [Dodecyl pyroglutamate]?
**A.** Flux of 2,3-dihydro-5-hydroxy-6-(o-hydroxymethylcinnamyl)benzofuran ± SD [2]: 0.61 ± 0.04 μg/cm^2 /hr; % of 2,3-dihydro-5-hydroxy-6-(o-hydroxymethylcinnamyl)benzofuran delivered in 48 hrs ± SD ([2]; 48 hrs): 13.4 ± 1.5%; flux of indomethacin [4, 7]: 0.630 μg/cm^2 /hr; Flux of acyclovir ± SD [1]: 0.072 ± 0.04 μg/cm^2 /hr; % of acyclovir delivered in 48 hrs ± SD [1]: 0.26 ± 0.15%; Flux of clonidine ± SD [1]: 0.63 ± 0.21 μg/cm^2 /hr; % of clonidine delivered in 48 hrs ± SD [1]: 13.2 ± 0.6%; Flux of enalapril ± SD [1]: 0.51 ± 0.09 μg/cm^2 /hr; % of enalapril delivered in 48 hrs ± SD [1]: 9.9 ± 2.7%; Primary Irritation Index (PII), T0-T72 hrs [5]: 0; Secondary Irritation Index (SII) at 7 days [5]: 0

**Q.** With `CCCCCCCC/C=C\CCCCCCCCOC(=O)[C@@H]1CCC(=O)N1` [Oleyl pyroglutamate] as the molecule, how does the “Flux of 2,3-dihydro-5-hydroxy-6-(o-hydroxymethylcinnamyl)benzofuran ± SD” value [2] read?
**A.** 0.95 ± 0.09 μg/cm^2 /hr

**Q.** And the “% of 2,3-dihydro-5-hydroxy-6-(o-hydroxymethylcinnamyl)benzofuran delivered in 48 hrs ± SD” value ([2]; 48 hrs)?
**A.** 21.7 ± 1.1%

**Q.** And the flux of indomethacin [4, 7]?
**A.** 0.450 μg/cm^2 /hr

**Q.** And the “Flux of clonidine ± SD” value [1]?
**A.** 0.26 ± 0.15 μg/cm^2 /hr

**Q.** What about the “% of clonidine delivered in 48 hrs ± SD” value [1] of the same molecule?
**A.** 4.4 ± 1.4%

**Q.** What about the “Flux of enalapril ± SD” value [1] of the same molecule?
**A.** 0.92 ± 0.22 μg/cm^2 /hr

**Q.** And the “% of enalapril delivered in 48 hrs ± SD” value [1]?
**A.** 18.7 ± 5.4%

**Q.** What about the “Primary Irritation Index (PII), T0-T72 hrs” value (from here on “Primary Irritation Index”) [5] of the same molecule?
**A.** 0.1 ± 0.3

**Q.** And the “Secondary Irritation Index (SII) at 7 days” value (“Secondary Irritation Index” for short) [5]?
**A.** 0

**Q.** With `COc1ccc2c(c1)c(CC(=O)O)c(C)n2C(=O)c1ccc(Cl)cc1` [Indomethacin, indomethacin] as the molecule, how does the flux of indomethacin ([4]; no enhancer) read?
**A.** non-detectable

**Q.** Which flux of indomethacin [4, 7] does the source give for `CC(C)=CCCC(C)=CCCC(C)=CCOC(=O)[C@@H]1CCC(=O)N1` [Farnesyl pyroglutamate] here?
**A.** 0.317 μg/cm^2 /hr

**Q.** What about the “Primary Irritation Index” value [5] of the same molecule?
**A.** 0

**Q.** And the “Secondary Irritation Index” value [5]?
**A.** 0

**Q.** Which “Primary Irritation Index” value [5] does the source give for `CCCCCCCCCCCCN1CCCCCC1=O` [Azone, reference compound] here?
**A.** 4.0 ± 1.9

**Q.** And the “Secondary Irritation Index” value [5]?
**A.** 0

**Q.** With `C[C@]12CCC(=O)C=C1CC[C@@H]1[C@@H]2[C@@H](O)C[C@@]2(C)[C@H]1CC[C@]2(O)C(=O)CO` [Hydrocortisone] as the molecule, how does the flux of drug [4, 8] read?
**A.** 0.338 μg/cm^2 /hr

**Q.** And the flux of drug [4, 9]?
**A.** Not detectable

**Q.** Which results are given for `CCCCCCCCCCOC(=O)[C@@H]1CCC(=O)N1` [Decyl pyroglutamate, Decyl Pyroglutamate]?
**A.** half-life [6]: 1.7 min; Flux of 2,3-dihydro-5-hydroxy-6-(o-hydroxymethylcinnamyl)benzofuran ± SD [2]: 0.70 ± 0.06 μg/cm^2 /hr; % of 2,3-dihydro-5-hydroxy-6-(o-hydroxymethylcinnamyl)benzofuran delivered in 48 hrs ± SD ([2]; 48 hrs): 16.1 ± 3.0%; flux of indomethacin [4, 7]: 0.477 μg/cm^2 /hr; Flux of acyclovir ± SD [1]: 0.063 ± 0.01 μg/cm^2 /hr; % of acyclovir delivered in 48 hrs ± SD [1]: 0.25 ± 0.03%; Flux of clonidine ± SD [1]: 0.31 ± 0.13 μg/cm^2 /hr; % of clonidine delivered in 48 hrs ± SD [1]: 8.1 ± 2.1%; Flux of enalapril ± SD [1]: 0.15 ± 0.01 μg/cm^2 /hr; % of enalapril delivered in 48 hrs ± SD [1]: 4.3 ± 0.9%; Primary Irritation Index (PII), T0-T72 hrs [5]: 0.9 ± 1.1; Secondary Irritation Index (SII) at 7 days [5]: 0

**Q.** Which “% delivered in 48 hrs ± SD” value ([1]; acyclovir) does the source give for `Nc1nc2c(ncn2COCCO)c(=O)[nH]1` [Acyclovir, reference compound] here?
**A.** not detectable

**Q.** With `CC(C)NCC(O)COc1cccc2ccccc12` (centres unmarked) [Propranolol] as the molecule, how does the flux of drug [4, 8] read?
**A.** 7.410 μg/cm^2 /hr

**Q.** What about the flux of drug [4, 9] of the same molecule?
**A.** 3.680 μg/cm^2 /hr
